# Results taken from US12428433B2, “Fluorine-containing heterocyclic derivatives with macrocyclic structure and use thereof” (ScinnoHub Pharmaceutical Co., Ltd, priority 2019, dated 2025).
# Like-named read-outs stand apart in the source and are kept apart here.
# Tests used:
# [1] = In-vivo pharmacokinetic study on SD rats, intravenous and oral; details: rat, plasma; for AUC(0-t): read-out: Area under curve AUC(0-t); for Cmax: read-out: Concentration to peak Cmax; for half-life: read-out: Half-life period t1/2 (converted); for bioavailability: read-out: Bioavailability F %
# Procedure: Species: SD rats, SPF level. Source: the animals were transferred from the animal repository (999M-017) of the experimental institution of Shanghai Sippe-Bk Lab Animal Co., Ltd. Quantity: 3 rats for each formulation.
# 2.1 An appropriate amount of test samples were accurately weighed, added to a final volume of 5% DMSO, 10% polyethylene glycol-15 hydroxystearate and 85% normal saline, and fully mixed by vortex or ultrasound to obtain 0.2 mg/mL administration solution for intravenous administration.
# 2.2 An appropriate amount of test samples were accurately weighed, added to a final volume of 5% DMSO, 10% polyethylene glycol-15 hydroxystearate and 85% normal saline, and fully mixed by vortex or ultrasound to obtain 0.5 mg/mL administration solution for oral and intragastric administration.
# Weighing was carried out before administration, and the dosage was calculated according to the weight. Intravenous administration, or oral intragastric administration was carried out.
# The blood sampling was carried out before administration and 0.083 hour, 0.25 hour, 0.5 hour, 1 hour, 2 hours, 4 hours, 6 hours, 8 hours, and 24 hours after administration.
# The blood sampling was carried out through a jugular vein or other suitable modes, and about 0.20 mL of each sample was collected. Heparin sodium was used for anticoagulation, the collected blood samples were placed on ice, and plasma was centrifuged within 2 hours (the centrifugation was carried out by a centrifugal force of 6,800 g for 6 minutes at 2° C. to 8° C.). The collected plasma samples were stored in a refrigerator at −80° C. before analysis, and the remaining plasma samples after analysis were continuously stored in the refrigerator at −80° C. for temporary storage.
# A plasma concentration of a test subject was detected, a plasma concentration-time curve was drawn, and BLQs were all recorded as 0. […] According to blood concentration data at different time points, the pharmacokinetic parameters such as AUC(0-t), T1/2 and Cmax were calculated by WinNonlin.
# TRKC(G623R) = TRKC(G623R) (Homo sapiens (Human), UniProt Q16288, G623R); test: Kinase inhibitory activity (Caliper mobility shift), TRKC(G623R); assay type: biochemical
# Procedure: Sundia Meditech (Shanghai) Co., Ltd. was commissioned to complete the testing example.
# 3.1 A tested compound was accurately weighed and dissolved in 100% DMSO to prepare into a 10 mM solution.
# 250 nL of the compound of 100 times final concentration was transferred to a reaction plate OptiPlate-384F by a dispenser Echo 550.
# 3.2.3 A kinase solution of 2.5 times final concentration was prepared with 1×kinase buffer.
# 3.2.4 10 μL of kinase solution of 2.5 times final concentration was added into a compound well and a positive control well respectively; and 10 μL of 1×kinase buffer was added into a negative control well.
# 3.2.5 The reaction plate was shaken and mixed evenly, and then incubated at room temperature for 10 minutes.
# 3.2.6 Mixed solutions of ATP and kinase substrate 22 of 5 times and 3 times final concentrations were prepared with 1×kinase buffer.
# 3.2.7 15 μL of mixed solution of ATP and substrate of 5 times or 3 times final concentration was added.
# 3.2.8 The 384-well plate was centrifuged at 1,000 rpm for 30 seconds, shaken and mixed evenly, and then incubated at room temperature for corresponding time.
# 3.2.9 The kinase reaction was terminated.
# 3.2.10 A conversion rate was read by the microplate reader Caliper EZ Reader.
# Calculation Formula Inhibition rate %=(conversion rate % maximum−conversion rate % sample)/(conversion rate % maximum−conversion rate % minimum)×100
# wherein the conversion rate % sample was: a reading number of a conversion rate of a sample; the conversion rate % minimum was: an average value of the negative control well, which represented a reading number of a conversion rate without an enzyme activity well; and the conversion rate % maximum was: an average value of a ratio of the positive control well, which represented a reading number of a conversion rate without a compound inhibition well.
# Fitting of dose-effect curve: a log value of concentration was used as an X axis, a percentage inhibition rate was used as a Y axis, and the dose-effect curve was fitted by a log (inhibitor) vs. response-variable slope of the analysis software GraphPad Prism 5 (four-parameter model fitting), so as to obtain an IC50 value of each compound on enzyme activity.
# TRKA(G595R) = TRKA(G595R) (Homo sapiens (Human), UniProt P04629, G595R); test: Kinase inhibitory activity (Caliper mobility shift), TRKA(G595R); assay type: biochemical
# Procedure: […] (Shanghai) Co., Ltd. was commissioned to complete the testing example. […] 3.1 A tested compound was accurately weighed and dissolved in 100% DMSO to prepare into a 10 mM solution. […] 3.2.3 A kinase solution of 2.5 times final concentration was prepared with 1×kinase buffer. […] 3.2.5 The reaction plate was shaken and mixed evenly, and then incubated at room temperature for 10 minutes. 3.2.6 Mixed solutions of ATP and kinase substrate 22 of 5 times and 3 times final concentrations were prepared with 1×kinase buffer. 3.2.7 15 μL of mixed solution of ATP and substrate of 5 times or 3 times final concentration was added. 3.2.8 The 384-well plate was centrifuged at 1,000 rpm for 30 seconds, shaken and mixed evenly, and then incubated at room temperature for corresponding time. 3.2.9 The kinase reaction was terminated. 3.2.10 A conversion rate was read by the microplate reader Caliper EZ Reader. Calculation Formula Inhibition rate %=(conversion rate % maximum-conversion rate % sample)/(conversion rate % maximum-conversion rate % minimum)×100 wherein the conversion rate % sample was: a reading number of a conversion rate of a sample; the conversion rate % minimum was: an average value of the negative control well, which represented a reading number of a conversion rate without an enzyme activity well; and the conversion rate % maximum was: an average value of a ratio of the positive control well, which represented a reading number of a conversion rate without a compound inhibition well.
# Chain of TRKC(G623R) (Q16288 32-839 G623R): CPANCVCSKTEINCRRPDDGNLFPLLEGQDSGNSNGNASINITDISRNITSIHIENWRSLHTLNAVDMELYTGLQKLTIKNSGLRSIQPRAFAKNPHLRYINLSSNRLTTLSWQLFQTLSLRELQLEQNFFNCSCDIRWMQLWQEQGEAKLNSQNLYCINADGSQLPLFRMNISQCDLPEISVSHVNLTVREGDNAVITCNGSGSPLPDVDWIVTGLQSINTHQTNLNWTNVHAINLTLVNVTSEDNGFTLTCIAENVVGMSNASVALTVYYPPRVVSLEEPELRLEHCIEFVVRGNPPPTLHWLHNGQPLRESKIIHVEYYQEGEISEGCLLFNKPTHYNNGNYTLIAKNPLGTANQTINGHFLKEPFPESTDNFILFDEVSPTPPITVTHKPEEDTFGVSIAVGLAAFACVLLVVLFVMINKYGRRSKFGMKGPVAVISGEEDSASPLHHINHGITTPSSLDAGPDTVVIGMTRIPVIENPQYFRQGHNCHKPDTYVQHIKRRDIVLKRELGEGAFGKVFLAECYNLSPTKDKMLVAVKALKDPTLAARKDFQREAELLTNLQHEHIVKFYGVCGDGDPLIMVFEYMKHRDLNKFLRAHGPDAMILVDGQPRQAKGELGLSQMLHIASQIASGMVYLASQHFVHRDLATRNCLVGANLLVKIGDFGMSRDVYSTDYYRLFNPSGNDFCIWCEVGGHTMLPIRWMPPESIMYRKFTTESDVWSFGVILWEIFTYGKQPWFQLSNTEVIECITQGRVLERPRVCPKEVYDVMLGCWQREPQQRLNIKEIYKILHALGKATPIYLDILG
# Chain of TRKA(G595R) (P04629 33-796 G595R): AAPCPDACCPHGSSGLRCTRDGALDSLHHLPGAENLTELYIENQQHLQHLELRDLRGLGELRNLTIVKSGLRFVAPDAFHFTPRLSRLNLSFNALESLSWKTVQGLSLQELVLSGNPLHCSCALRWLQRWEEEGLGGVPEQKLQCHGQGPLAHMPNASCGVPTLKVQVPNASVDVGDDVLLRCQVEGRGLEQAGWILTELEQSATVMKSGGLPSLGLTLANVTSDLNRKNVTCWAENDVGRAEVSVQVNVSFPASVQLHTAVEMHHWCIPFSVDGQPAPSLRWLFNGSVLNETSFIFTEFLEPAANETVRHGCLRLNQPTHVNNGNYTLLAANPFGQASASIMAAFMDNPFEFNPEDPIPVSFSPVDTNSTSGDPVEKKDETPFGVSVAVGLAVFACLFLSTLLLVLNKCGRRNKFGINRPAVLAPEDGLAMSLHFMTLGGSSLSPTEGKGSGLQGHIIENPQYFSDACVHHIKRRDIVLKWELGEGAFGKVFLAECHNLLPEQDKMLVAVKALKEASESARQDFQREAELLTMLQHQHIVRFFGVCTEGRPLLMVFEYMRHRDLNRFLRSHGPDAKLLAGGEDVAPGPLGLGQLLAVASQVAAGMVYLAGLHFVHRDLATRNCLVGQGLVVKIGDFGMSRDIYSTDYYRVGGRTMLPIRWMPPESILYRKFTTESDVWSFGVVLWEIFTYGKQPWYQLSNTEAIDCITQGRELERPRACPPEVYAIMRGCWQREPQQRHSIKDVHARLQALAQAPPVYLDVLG
Structure (SMILES),AUC(0-t) ([1]; IV @ 1 mg/kg),Cmax ([1]; IV @ 1 mg/kg),half-life ([1]; IV @ 1 mg/kg),AUC(0-t) ([1]; PO @ 5 mg/kg),bioavailability ([1]; PO @ 5 mg/kg),Cmax ([1]; PO @ 5 mg/kg),half-life ([1]; PO @ 5 mg/kg),IC50 (TRKC(G623R)),IC50 (TRKA(G595R))
"O=C1N[C@H]2C[C@H](C2)Oc2ncc(F)cc2[C@H]2CCCN2c2nc3c1cnn3cc2F [Example 2, ((1^3E,1^4E,2^2R,5^1S,5^3S)-1^6,3^5-difluoro-4-oxa-6-aza-1(5,3)-pyrazolo[1,5-a]pyrimidine-3(3,2)-pyridine-2(1,2)-pyrrolidine-5(1,3)-cyclobutancycloheptan-7-one]",422 ng·h/mL,875 nM,0.33 h,1500 ng·h/mL,70.9%,527 nM,0.55 h,1.8 nM,–
"O=C1N[C@H]2C[C@H](C2)Oc2ncc(F)cc2[C@H]2CCCN2c2ccn3ncc1c3n2 (stereo in doubt) [Positive control 1, reference compound]",605 ng·h/mL,1160 nM,0.45 h,2270 ng·h/mL,75.1%,932 nM,0.68 h,1.7 nM,0.72 nM
"C[C@H]1Nc2nc3c(cnn3cc2F)C(=O)N[C@H]2C[C@H](C2)Oc2ncc(F)cc21 [Example 3, (3^1S,3^3S,6^3E,6^4E,8R)-1^5,6^6-difluoro-8-methyl-2-oxo-4,7-diaza-6(3,5)-pyrazolo[1,5-a]pyrimidine-1(2,3)-pyridine-3(1,3)-cyclobutylcyclooctane-5-one]",1480 ng·h/mL,573 nM,5 h,8770 ng·h/mL,119%,1300 nM,3.01 h,1.5 nM,0.89 nM
"C[C@H]1Nc2ccn3ncc(c3n2)C(=O)N[C@H]2C[C@H](C2)Oc2ncc(F)cc21 [Positive control 2, reference compound]",1010 ng·h/mL,781 nM,4.54 h,3350 ng·h/mL,66.3%,633 nM,3 h,1.4 nM,0.97 nM
